Test results: ChEMBL document CHEMBL3045865, “Synthesis and antitumor activity of new pyrido[2,3-d]pyrimidine derivatives” (2013)
The source made the active and inactive calls. The calls are words filed in the database; no cut-off is given here.

Experiments:
[1] = Induction of bleomycin-dependent DNA damage at 0.1 mg/ml after 1 hr
[2] = Antineoplastic activity against Mus musculus (mouse) EACs transplanted in Swiss albino Mus musculus (mouse) assessed as increase in hemoglobin level at 5 mg/kg, ip administered 9 days measured on day 14 (reference value: 8.7 g%); format: functional, Ehrlich; conditions: route intraperitoneal
[3] = Antineoplastic activity against Mus musculus (mouse) EACs transplanted in Swiss albino Mus musculus (mouse) assessed as decrease in WBC level at 5 mg/kg, ip administered 9 days measured on day 14 (reference value: 38.6 10^3/mm3); format: functional, Ehrlich; conditions: route intraperitoneal
[4] = Antineoplastic activity against Mus musculus (mouse) EACs transplanted in Swiss albino mouse assessed as increase in life span at 20 mg/kg, ip after 9 days (reference value: 9.1%); format: functional, Ehrlich; conditions: route intraperitoneal
[5] = Antineoplastic activity against Mus musculus (mouse) EACs transplanted in Swiss albino Mus musculus (mouse) assessed as increase in hematocritis level at 5 mg/kg, ip administered 9 days measured on day 14 (reference value: 35.5 g%); format: functional, Ehrlich; conditions: route intraperitoneal
[6] = Antineoplastic activity against Mus musculus (mouse) EACs transplanted in Swiss albino mouse assessed as increase in life span at 5 mg/kg, ip after 9 days (reference value: 9.1%); format: functional, Ehrlich; conditions: route intraperitoneal
Ehrlich = test: Antineoplastic activity against Mus musculus (mouse) EACs transplanted in Swiss albino mouse assessed as reduction in viable tumor cell count at 5 mg/kg, ip after 5 days by Giemsa staining; format: functional, organism-based; parameters: dose 5 mg/kg

With `NNC(=O)c1cc(=O)[nH]c2[nH]c(=O)[nH]c(=O)c12` the Activity [1] was “Active”.
In the case of `O=C(N/N=C/c1cccc([N+](=O)[O-])c1)c1cc(=O)[nH]c2[nH]c(=O)[nH]c(=O)c12`, the Activity [1] is reported as “Active”.
For `O=C(CN1CCN(c2ccccc2)CC1)NNC(=O)c1cc(=O)[nH]c2[nH]c(=O)[nH]c(=O)c12`, the Activity [1] was “Active”.
With `O=C(CN1CCN(c2ccccc2)CC1)Sc1nnc(-c2cc(=O)[nH]c3[nH]c(=O)[nH]c(=O)c23)n1-c1ccc(F)cc1` the Activity [1] was “Active”.
In the case of `O=c1cc(-c2nnc(S)n2-c2ccc(F)cc2)c2c(=O)[nH]c(=O)[nH]c2[nH]1`, the Activity [1] is reported as “Active”.
In the case of `COC(=O)c1cc(=O)[nH]c2[nH]c(=O)[nH]c(=O)c12`, the Activity [1] is reported as “Active”.
With `O=C(NNC(=S)Nc1ccccc1)c1cc(=O)[nH]c2[nH]c(=O)[nH]c(=O)c12` the Activity [1] was “Active”.
For `COc1ccc(N2CCN(CC(=O)NNC(=O)c3cc(=O)[nH]c4[nH]c(=O)[nH]c(=O)c34)CC2)cc1`, the Activity [1] was “Active”.
For `O=C(NNC(=S)Nc1ccc(F)cc1)c1cc(=O)[nH]c2[nH]c(=O)[nH]c(=O)c12`, the Activity [1] was “Active”.
Compound `O=c1[nH]cc(F)c(=O)[nH]1` [FLUOROURACIL] has an Activity [2] of 10 g%, an Activity [3] of 13.8 ×10³ /mm3 and an Activity [4] of 16.7%. For the same compound, the Activity [5] was 42.3%.
Work on `O=c1cc(-c2nnc(S)n2-c2ccccc2)c2c(=O)[nH]c(=O)[nH]c2[nH]1` yielded an Activity [2] of 11.7 g%, an Activity [3] of 11.2 ×10³ /mm3 and an Activity [6] of 18.6%. The Activity [1] was “Active”, the Activity (Ehrlich) was “Active” and the Activity [5] was 51.6%.
With `O=C(CCl)Sc1nnc(-c2cc(=O)[nH]c3[nH]c(=O)[nH]c(=O)c23)n1-c1ccc(F)cc1` the Activity [1] was “Active”.
For `COc1ccc(/C=N/NC(=O)c2cc(=O)[nH]c3[nH]c(=O)[nH]c(=O)c23)cc1`, the Activity [1] was “Active”.
With `O=C(CCl)NNC(=O)c1cc(=O)[nH]c2[nH]c(=O)[nH]c(=O)c12` the Activity [1] was “Active”.
